Experimental data: patent US5985885A, “Quinazoline-4-amino-2-(piperidine-1-yl-4-substituted) derivatives having antihypertensive activity, a method for their preparation and their pharmaceutical use” (priority 1996, dated 1999)

Key:
[1] = target: T1, alpha1A adrenergic receptor (rat GSM) (Rattus norvegicus, UniProt P43140); test: [3H]-prazosin binding in rat submaxillary glands (GSM); settings: alpha1A subtype, pH 7.4, 45 min, 25° C., read-out: Inhibition of the binding of [3H]-prazosin IC50
T1 sequence (P43140 1-466): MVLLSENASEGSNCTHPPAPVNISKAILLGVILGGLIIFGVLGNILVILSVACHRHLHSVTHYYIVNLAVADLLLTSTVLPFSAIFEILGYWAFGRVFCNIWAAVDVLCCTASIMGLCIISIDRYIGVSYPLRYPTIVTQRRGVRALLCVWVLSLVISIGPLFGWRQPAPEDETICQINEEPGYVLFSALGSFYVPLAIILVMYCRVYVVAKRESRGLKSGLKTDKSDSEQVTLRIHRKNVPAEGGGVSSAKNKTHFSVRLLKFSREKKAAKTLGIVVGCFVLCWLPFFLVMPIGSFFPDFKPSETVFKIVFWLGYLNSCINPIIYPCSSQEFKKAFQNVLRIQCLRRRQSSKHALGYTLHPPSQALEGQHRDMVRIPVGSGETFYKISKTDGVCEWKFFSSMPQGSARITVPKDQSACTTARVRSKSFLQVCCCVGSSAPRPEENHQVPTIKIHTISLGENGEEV

[2] = target: T2, alpha1B adrenergic receptor (rat liver) (Rattus norvegicus, UniProt P15823); test: [3H]-prazosin binding in rat liver
T2 sequence (P15823 1-515): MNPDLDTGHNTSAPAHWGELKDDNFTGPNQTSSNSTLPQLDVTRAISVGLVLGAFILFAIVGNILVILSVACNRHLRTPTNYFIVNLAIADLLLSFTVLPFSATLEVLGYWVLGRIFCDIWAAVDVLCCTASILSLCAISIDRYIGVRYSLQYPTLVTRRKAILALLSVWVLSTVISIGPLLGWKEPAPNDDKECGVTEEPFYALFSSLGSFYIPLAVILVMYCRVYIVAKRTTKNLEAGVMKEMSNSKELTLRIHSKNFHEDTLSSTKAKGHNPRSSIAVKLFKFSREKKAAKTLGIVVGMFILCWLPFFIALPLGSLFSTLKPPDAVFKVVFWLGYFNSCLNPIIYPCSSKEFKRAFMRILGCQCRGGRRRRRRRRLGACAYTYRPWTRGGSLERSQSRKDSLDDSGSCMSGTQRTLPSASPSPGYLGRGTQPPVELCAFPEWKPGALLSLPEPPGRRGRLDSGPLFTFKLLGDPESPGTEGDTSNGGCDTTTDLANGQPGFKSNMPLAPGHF

[3] = system: alpha1A, alpha1B and alpha1C adrenergic receptor subtypes; test: [3H]-prazosin binding, alpha1 subtypes together (Table 3 overall); settings: reference compounds versus compounds of the invention/prazosin
[4] = target: T3, 5-HT2 receptors (isolated rabbit aorta) (Oryctolagus cuniculus, UniProt G1SYA7); test: Antagonism of serotonin-induced contraction of isolated rabbit aorta; settings: isolated rabbit aorta, 37° C., compound 10 min before agonist; limits (p < 0.05)
T3 construct: Four rings formed from rabbit aorta were joined together to form a chain; from tissue; host or cells: isolated rabbit aorta rings
T3 sequence (G1SYA7 1-469): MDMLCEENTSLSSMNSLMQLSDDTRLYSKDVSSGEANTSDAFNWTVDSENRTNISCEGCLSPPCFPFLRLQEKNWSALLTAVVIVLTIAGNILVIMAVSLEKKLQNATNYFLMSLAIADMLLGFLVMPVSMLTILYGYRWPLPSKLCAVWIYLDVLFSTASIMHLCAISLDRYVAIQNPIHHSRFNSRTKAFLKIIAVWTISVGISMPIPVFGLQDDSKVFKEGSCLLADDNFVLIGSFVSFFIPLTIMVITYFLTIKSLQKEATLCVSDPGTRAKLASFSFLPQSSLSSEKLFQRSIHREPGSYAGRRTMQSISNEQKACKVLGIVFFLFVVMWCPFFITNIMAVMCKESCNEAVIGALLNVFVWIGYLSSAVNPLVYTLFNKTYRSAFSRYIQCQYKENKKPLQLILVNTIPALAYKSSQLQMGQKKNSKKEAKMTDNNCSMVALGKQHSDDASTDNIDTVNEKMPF
Experimental: The antagonist activity of some of the compounds of the invention on the contractile activity of seratonin on isolated rabbit aorta, effected principally by way of the 5-HT2 receptors, is reported here by way of example. The method of Feniuk et al [Br. J. Pharmacol. (1985), 86, 697-704] was used, with slight modifications. Four rings formed from rabbit aorta were joined together to form a chain; the preparation was placed in an isolated organ bath in the presence of Krebs at 37° C. and attached to an isometric transducer, a tension of 2 g being applied and oxygenation was carried out continuously with O2 --CO2 (95-5 v/v). A seratonin concentration(0.3 μM) was used that was capable of causing sub-maximal contraction of the preparation. […] The results obtained in this way are given in Table 4 below which, for several of the compounds of the invention gives IC50 values calculated by the regression method on a set of at least 2 experiments at 5 different concentrations for each of the compounds examined, these being compared with values obtained for several reference compounds.

[5] = target: alpha1A + alpha1C adrenergic receptor (human prostate); test: [3H]-prazosin binding in human prostate; settings: alpha1A + alpha1C subtype, pH 7.5, 30 min, 25° C., read-out: Inhibition of the binding of [3H]-prazosin IC50

With `O=C(c1ccc(F)cc1)C1CCN(CCn2c(=O)[nH]c3ccccc3c2=O)CC1` [Ketanserine, reference compound] the IC50 [1] was 0.0482 µM, the IC50 [2] was 0.0299 µM and the “times less powerful (on average)” value [3] was 10 to 30 times. It also gave an IC50 [4] of 0.228 µM and an IC50 [5] of 0.27 µM.
